Reference: ChEMBL document CHEMBL1201862, “PubChem BioAssay data set” (2004)
The source made the active and inactive calls.

Assays:
[1] = Luminescence Cell-Based Dose Response HTS to Identify Activators of Luciferase Translation or Activity in H4 […] Cells. [Related pubchem assays: 1829 (Project Summary), 1814 (Primary HTS)]; format: functional
H4 = assay: Luminescence Cell-Based Dose Response HTS to Identify Activators of 5'UTR Stem-Loop Driven Prion Protein mRNA Translation in H4 Neuroglioblastoma Cells. [Related pubchem assays: 1829 (Project Summary), 1814 (Primary HTS)]; format: functional; details: Homo sapiens
[2] = target: T1, Ubiquitin-conjugating enzyme E2 N (Homo sapiens, UniProt P61088); format: functional;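 also: Dose-response confirmation in a TR-FRET assay detecting UBC13-driven polyubiquitin chain formation, inhibition measured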
T1 sequence (P61088 whole entry): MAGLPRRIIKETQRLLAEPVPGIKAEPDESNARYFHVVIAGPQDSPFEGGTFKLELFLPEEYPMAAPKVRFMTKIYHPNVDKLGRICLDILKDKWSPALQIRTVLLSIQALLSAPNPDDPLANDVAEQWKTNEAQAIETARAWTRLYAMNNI

[3] = target: FAD-linked sulfhydryl oxidase ALR (Homo sapiens, UniProt P55789); assay: inhibitors of human ALR sulfhydryl oxidase, dose response, biochemical, H2O2 detection, luminescence, cherry-pick (AID 493248)
[4] = MDA-MB-231 cell growth inhibition, dose response, cytotoxicity control for RAD54 inhibitor project, CellTiter-Glo luminescence, cherry-pick (AID 651692); format: functional, cell-based
[5] = target: T2, DNA repair and recombination protein RAD54-like (Homo sapiens, UniProt Q92698); assay: inhibitors of human RAD54 branch migration, confirmation, biochemical, fluorescence, cherry-picked samples, dose series (AID 651657); format: functional
T2 sequence (Q92698 whole entry): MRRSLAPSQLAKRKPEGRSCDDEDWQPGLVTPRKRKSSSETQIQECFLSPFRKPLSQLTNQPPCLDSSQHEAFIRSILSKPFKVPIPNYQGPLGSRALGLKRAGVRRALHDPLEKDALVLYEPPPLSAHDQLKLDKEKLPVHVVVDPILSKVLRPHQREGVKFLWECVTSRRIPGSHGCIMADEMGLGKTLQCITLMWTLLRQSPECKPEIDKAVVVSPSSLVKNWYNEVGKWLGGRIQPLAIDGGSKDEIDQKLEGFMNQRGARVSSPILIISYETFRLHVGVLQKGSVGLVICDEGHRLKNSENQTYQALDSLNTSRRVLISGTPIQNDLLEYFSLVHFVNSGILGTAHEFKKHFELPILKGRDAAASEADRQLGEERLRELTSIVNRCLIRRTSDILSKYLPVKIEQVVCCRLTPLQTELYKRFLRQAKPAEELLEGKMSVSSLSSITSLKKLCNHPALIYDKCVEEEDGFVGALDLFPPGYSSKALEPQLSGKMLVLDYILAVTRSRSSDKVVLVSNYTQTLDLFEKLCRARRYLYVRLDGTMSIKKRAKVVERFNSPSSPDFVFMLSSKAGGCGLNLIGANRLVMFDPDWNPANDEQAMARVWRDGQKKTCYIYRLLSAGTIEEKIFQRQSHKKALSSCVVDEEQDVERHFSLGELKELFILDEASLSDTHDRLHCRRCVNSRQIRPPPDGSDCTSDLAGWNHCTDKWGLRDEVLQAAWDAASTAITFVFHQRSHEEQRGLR

[6] = HepG2 cell cytotoxicity, dose response, cytotoxicity control, ATP luminescence, cherry-pick, set 6 (AID 1053125); format: functional, cell-based
cells [7] = details: A549
cells [8] = assay: cells
cells [9] = details: HEK293
[10] = ADAM10 inhibitors, peptide cleavage, dose response, biochemical, QFRET (AID 743254);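 also: ADAM10 enzyme with the DM2 quenched FRET peptide as substrate; EDANS fluorescence gain as the protease cuts the substrate; inhibitor potency against ADAM10 proteolytic activity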
[11] = target: Disintegrin and metalloproteinase domain-containing protein 17 (Homo sapiens, UniProt P78536); assay: ADAM17 protease inhibitors, dose response, counter-screen for ADAM10 exosite inhibitor project, biochemical, quenched FRET substrate (AID 743253)
[12] = target: T3, NAD-dependent protein deacylase sirtuin-5, mitochondrial (Homo sapiens, UniProt Q9NXA8); assay: SIRT5 desuccinylase inhibitors, dose response, biochemical, fluorescence imaging, cherry-pick, set 5 (AID 720591);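 also: desuccinylation of succinyl peptide AMC substrate read as fluorescence after trypsin release; potency of inhibitors that lower fluorescence and may act on trypsin instead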
[13] = Luminescence Cell-Based Dose Confirmation HTS to Identify Activators of 5'UTR Stem-Loop Driven Alpha-Synuclein mRNA Translation in H4 Neuroglioblastoma Cells. [Related pubchem assays: 1829 (Project Summary), 1814 (Primary HTS)]; format: functional
cells [14] = format: functional, cell-based
cells [15] = format: functional, cell-based; remark: listed apart in the source
[16] = HepG2 cell cytotoxicity, dose response, cytotoxicity control, ATP luminescence, cherry-pick, activator set 2 (AID 1053143); format: functional, cell-based
[17] = target: Oxysterols receptor LXR-beta (Homo sapiens, UniProt P55055); format: functional, cell-based;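 also: agonist activity at LXR measured by a cell-based luminescence readout across a dose range, run as a counterscreen for daf-12 agonists; HEK293 cells with Gal4-LXR fusion and GAL4-driven luciferase reporter; potency for activation of Gal4-LXR reporter so compounds are agonists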
Major prion protein = Major prion protein (Homo sapiens, UniProt P04156); format: functional, cell-based
cells [18] = assay: cells; remark: listed apart in the source
[19] = inhibitors of firefly luciferase expression or activity, dose response, H4 neuroglioma cells, luminescence (AID 1990); format: functional, cell-based
BJ [20] = assay: cytotoxicity toward BJ-TERT fibroblasts, dose response, cell-based, RAS-independent, luminescence (AID 1933); format: functional; details: Homo sapiens
[21] = Luminescence Cell-Based Dose Response HTS to Identify Inhibitors of 5'UTR Stem-Loop Driven Prion Protein mRNA Translation in H4 Neuroglioblastoma Cells. [Related pubchem assays: 1827 (Project Summary), 1813 (Primary HTS)]; format: functional
[22] = inhibitors of SNCA 5'UTR-driven reporter translation, confirmation, H4 neuroglioma cells, luminescence (AID 1988); format: functional, cell-based
BJ [23] = assay: cells; format: functional, cell-based; details: Homo sapiens
Large T antigen = Large T antigen (Simian virus 40, UniProt P03070); format: functional, Betapolyomavirus macacae;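 also: Confirmatory-stage PubChem screen for compounds that inhibit SV40 T antigen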
[24] = target: Luciferin 4-monooxygenase (Photinus pyralis, UniProt P08659); assay: firefly luciferase enzyme inhibitors, dose response, biochemical, luminescence (AID 1891)
[25] = Luminescence Cell-Based Dose Confirmation HTS to Identify Inhibitors of Platelet Dense Granule Release. [Related pubchem assays: 1663 (Primary HTS), 1678 (Summary of Project)]; format: functional
BJ [26] = assay: cytotoxicity toward BJ-TERT-LT-ST fibroblasts, dose response, cell-based, RAS-independent, luminescence (AID 1935); format: functional; details: Homo sapiens;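 also: BJ fibroblasts immortalized with TERT plus LT and ST oncogenes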
[27] = cytotoxicity toward DRD oncogenic fibroblasts, dose response, cell-based, non-viral oncogenic, luminescence (AID 1934); format: functional; details: Homo sapiens
Nonstructural protein 1 = Nonstructural protein 1 (Influenza A virus, UniProt Q194T2); format: functional, Influenza A virus (A/California/07/2009(H1N1))
BJ [28] = assay: cytotoxicity toward Ras-transformed BJeLR fibroblasts, dose response, cell-based, alamar blue fluorescence, cherrypicked samples (AID 2631); format: functional; details: Homo sapiens;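 also: confirmatory dose-response assay in RAS-dependent BJ fibroblasts engineered with TERT, LT and ST, with cytotoxicity read by fluorescence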
[29] = target: T4, Rac GTPase-activating protein 1 (Homo sapiens, UniProt Q9H0H5); assay: MgcRacGAP GTPase-activating activity inhibitors, confirmation, biochemical, ADP Hunter fluorescence, primary and confirmatory (AID 624330); format: functional
T4 sequence (Q9H0H5 whole entry): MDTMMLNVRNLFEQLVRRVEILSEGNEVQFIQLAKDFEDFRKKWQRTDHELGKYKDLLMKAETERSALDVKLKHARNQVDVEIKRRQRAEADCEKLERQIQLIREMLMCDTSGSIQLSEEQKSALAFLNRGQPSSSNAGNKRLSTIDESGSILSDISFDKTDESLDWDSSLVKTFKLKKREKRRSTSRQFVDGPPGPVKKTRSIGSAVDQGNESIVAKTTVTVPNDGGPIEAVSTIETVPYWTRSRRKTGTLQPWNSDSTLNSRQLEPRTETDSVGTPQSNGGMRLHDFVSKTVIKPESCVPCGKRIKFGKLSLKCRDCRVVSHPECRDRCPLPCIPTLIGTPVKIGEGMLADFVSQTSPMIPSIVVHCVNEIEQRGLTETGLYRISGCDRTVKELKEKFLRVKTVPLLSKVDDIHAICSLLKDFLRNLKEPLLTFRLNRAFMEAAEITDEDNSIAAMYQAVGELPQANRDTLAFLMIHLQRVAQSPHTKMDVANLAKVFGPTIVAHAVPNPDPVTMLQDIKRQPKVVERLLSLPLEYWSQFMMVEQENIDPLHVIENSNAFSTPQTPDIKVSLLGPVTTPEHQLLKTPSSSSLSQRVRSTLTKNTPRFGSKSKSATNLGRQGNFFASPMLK

[30] = HEK293T cytotoxicity, dose response, cytotoxicity control for miR-122 modulator project, cell-based, inhibitor set, cherry-pick, set 2 (AID 720697); format: functional
[31] = HEK293T cytotoxicity, dose response, cytotoxicity control for miR-122 modulator project, cell-based, activator set, cherry-pick (AID 720690); format: functional;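 also: HEK293T human cells scored for general mammalian cytotoxicity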
[32] = target: T3, NAD-dependent protein deacylase sirtuin-5, mitochondrial; assay: SIRT5 deacylase inhibitors, dose response, biochemical, fluorescence imaging, cherry-pick, set 6 (AID 720597)
[33] = MITF Orthogonal Assay: SK-MEL-5 CTG Assay Measured in Cell-Based System Using Plate Reader - 2084-02_Inhibitor_Dose_DryPowder_Activity_Set7.; format: functional
[34] = MITF: Counter assay: A375 proliferation Measured in Cell-Based System Using Plate Reader - 2084-03_Inhibitor_Dose_DryPowder_Activity_Set8.; format: functional; details: A-375
[35] = TRPM1 promoter luciferase reporter signal decrease, dose response, MITF inhibitor project, cell-based, SK-MEL-5, dry powder, set 8 (AID 624430); format: functional
[36] = A375 melanoma cell viability loss, dose response, counter-screen for MITF inhibitor project, CellTiter-Glo luminescence, dry powder, set 4 (AID 624364); format: functional, cell-based; details: A-375;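 also: A375 melanoma cells are MITF independent so this is a counter screen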
[37] = A375 melanoma cell cytotoxicity, dose response, counter-screen for MITF inhibitor project, CellTiter-Glo luminescence, dry powder, set 2 (AID 624489); format: functional, cell-based; details: A-375;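 also: actives are compounds lowering A375 viability meaning general cytotoxicity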
[38] = target: Protein disulfide-isomerase (Homo sapiens, UniProt P07237); assay: PDI inhibitors, insulin turbidity readout, confirmation, biochemical, dry powder samples, set 2 (AID 652146)
NS3 = NS3 (Hepatitis C virus, UniProt A3EZJ3); assay: HCV NS3 helicase inhibitor potency, dose response, biochemical, fluorescence polarization, ChemBridge library (AID 743264)
[39] = inhibitors of non-replicating M. tuberculosis, dose response, luciferase, dry powder (AID 651619); format: functional; details: Mycobacterium tuberculosis
[40] = inhibitors of non-replicating M. tuberculosis, dose response, luciferase, dry powder (AID 651620); format: functional; details: Mycobacterium tuberculosis
[41] = target: Potassium channel subfamily K member 9 (Homo sapiens, UniProt Q9NPC2); assay: TASK3 (KCNK9) channel inhibitors, thallium flux, SAR follow-up, selectivity assay for TASK1 inhibitor project, cell-based, FluxOR thallium flux, concentration-response (AID 652211); format: functional;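 also: potency is for inhibitors of the channel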
[42] = target: Potassium channel subfamily K member 3 (Homo sapiens, UniProt O14649); assay: TASK1 (KCNK3) potassium channel inhibitors, SAR follow-up, CHO cells, FluxOR thallium flux (AID 652212); format: functional

## Cc1cc2oc3cc(NCCC4CCCN4C)ccc3c(=O)c2cc1C (centres undefined)
[1]
  EC50: 0.113 µM (active)
H4
  EC50: 45.4 µM (active)
[2]
  IC50: > 20 µM (inactive)
[3]
  AC50: 0.287 µM (active)
[4]
  AC50: 22.6 µM (active)
[5]
  AC50: 13.3 µM (active)
[6]
  AC50: 11.2 µM (active)
Cells [7]
  AC50: 9.92 µM (active)
Cells [8]
  AC50: 35 µM (active)
Cells [9]
  AC50: 12.4 µM (active)

## COc1cc(OC)c(N(C)S(=O)(=O)c2cccc(C(=O)OCC(=O)c3c[nH]c4ccccc34)c2)cc1Cl
[10]
  IC50: > 69.5 µM (inactive)
[11]
  IC50: > 69.5 µM (inactive)

## COc1ccc(C(C(=O)NC(C)(C)C)N(Cc2ccco2)C(=O)CCC(=O)Nc2cc(C)on2)cc1 (centres undefined)
[12]
  AC50: 23.5 µM (active)

## O=C(NCCc1ccccc1)c1cc(-c2ccco2)on1
[13]
  EC50: 3.89 µM (active)
[1]
  EC50: 0.116 µM (active)
Cells [14]
  EC50: 11.8 µM (active)
H4
  EC50: > 120 µM (not active)
Cells [15]
  EC50: 339 µM (active)
[16]
  AC50: 26 µM (active)
[17]
  EC50: > 67.5 µM (inactive)

## Cc1nc(SCC(=O)Nc2cc(C(N)=O)cc(C(N)=O)c2)c2c(C)c(C)sc2n1
Major prion protein
  IC50: 11.6 µM (inactive)
Cells [18]
  IC50: > 138 µM (inactive)

## Oc1ccc(/C=N/Nc2nccnc2Cl)c(O)c1
[19]
  EC50: 7.09 µM (active)
BJ [20]
  EC50: 10.7 µM (active)
[21]
  EC50: 6.33 µM (active)
[22]
  EC50: 3.7 µM (active)
BJ [23]
  EC50: 5.07 µM (active)
Large T antigen
  IC50: 16.7 µM (active)
[24]
  EC50: 1.05 µM (active)
[25]
  EC50: 0.254 µM (active)
BJ [26]
  EC50: 10.9 µM (active)
[27]
  EC50: 13.4 µM (active)
Nonstructural protein 1
  IC50: 9.11 µM (active)
BJ [28]
  EC50: 6.12 µM (active)
[29]
  IC50: 12.7 µM (active)
[30]
  AC50: 3.85 µM (active)
[31]
  AC50: 16.5 µM (active)

## COCC(=O)NC[C@@H]1N[C@@H](CO)[C@H]1c1ccc(C2=CCCCC2)cc1
[32]
  AC50: > 30 µM (inactive)

## CCN1CCN(C2=C(Nc3ccc(I)cc3)C(=O)c3ccccc3C2=O)CC1
[33]
  AC50: 7.26 µM (active)
[34]
  AC50: 16.8 µM (active)
[35]
  AC50: 1.48 µM (active)

## CC(=O)N(C)C1=C(N2CCN(C)CC2)C(=O)c2ccccc2C1=O
[36]
  AC50: 12.1 µM (active)
[37]
  AC50: 5.65 µM (active)

## O=C(Nc1ccccc1)C1(CCOc2ccccc2)CCN(Cc2ccc(O)c(Cl)c2)CC1
[38]
  AC50: 15 µM (active)

## O=C1C=CC(=O)N1c1ccc(Br)cc1[N+](=O)[O-]
NS3
  IC50: 22.4 µM (inactive)

## [N-]=[N+]=NCCOCCNC(=O)CCCOc1ccc(-c2nnc(SCc3ccccn3)o2)cc1
[39]
  IC90: 31 µM (active)
[40]
  IC90: 31 µM (active)

## CCOc1ccccc1NC(=O)c1cccc(NC(=O)CC2CCCCC2)c1
[41]
  IC50: 1.92 µM (active)
[42]
  IC50: 0.217 µM (active)
